How the values were obtained:
HepG-2 cells [1] = assay: MTT cytotoxicity assay on HepG-2 cells; type: cell-based, human; conditions: for fold higher cytotoxicity than indirubin: HepG-2 cells, relative to indirubin; for viability at 1.25 µM / viability at 2.5 µM / viability at 5 µM / viability at 10 µM / viability at 20 µM / viability at 40 µM / viability at 80 µM / viability at 160 µM / IC50: Homo sapiens, HepG2; for viability at 1.25 µM: HepG-2, 1.25 µM; for viability at 1.25 µM / viability at 2.5 µM / viability at 5 µM / viability at 10 µM / viability at 20 µM / viability at 40 µM / viability at 80 µM / viability at 160 µM: Table S1; for viability at 2.5 µM: HepG-2, 2.5 µM; for viability at 5 µM: HepG-2, 5 µM; for viability at 10 µM: HepG-2, 10 µM; for viability at 20 µM: HepG-2, 20 µM; for viability at 40 µM: HepG-2, 40 µM; for viability at 80 µM: HepG-2, 80 µM; for viability at 160 µM: HepG-2, 160 µM; for IC50: MTT, 24 h treatment, mean of three experiments ± SEM
Protocol: (§1) Cytotoxic activity of the synthesized compounds was evaluated against HepG-2 and MCF-7 cancer cell lines using the MTT assay. The tested cell lines were obtained from the American Type Culture Collection (ATCC, […], USA) through the Tissue Culture Unit, The Egyptian Organization for Biological Products and Vaccines (Vacsera, Giza, Egypt). Indirubin, chemicals, and solvents were purchased from Sigma-Aldrich (St. Louis, MO, USA). The cells were grown on RPMI-1640 medium supplemented with 10% inactivated fetal calf serum and 50 µg/mL gentamycin. The cells were maintained at 37 °C in a humidified atmosphere with 5% CO2 and were sub-cultured two to three times per week. For antitumor assays, the tumor cell lines were suspended in the medium at concentration 5 × 10^4 cell/well in Corning® 96-well tissue culture plates (Corning, Corning, NY, USA), then incubated for 24 h. The tested molecules were then added to 96-well plates (six replicates) to achieve six concentrations for each compound. Six vehicle controls with media or 0.5% DMSO were run for each 96-well plate as a control. After incubating for 24 h, the numbers of viable cells were determined by the MTT test. Briefly, the media was removed from the 96 well plate and replaced with 100 µL of fresh culture RPMI 1640 medium without phenol red then 10 µL of the 12 mM MTT stock solution (5 mg of MTT in 1 mL of PBS) to each well including the untreated controls. The 96-well plates were then incubated at 37 °C and 5% CO2 for 4 h. An 85 µL aliquot of the media was removed from the wells, and 50 µL of DMSO was added to each well, mixed thoroughly with the pipette, and incubated at 37 °C for 10 min. Then, the optical density was measured at 590 nm with the microplate reader (SunRise, TECAN, Inc., Morrisville, NC, USA) to determine the number of viable cells, and the percentage of viability was calculated as […], where ODt is the mean optical density of wells treated with the tested sample and ODc is the mean optical density of untreated cells. The relation between surviving cells and drug concentration was plotted to obtain the survival curve of each tumor cell line after treatment with the specified compound. […] Each concentration was repeated four times.

MCF-7 cells = assay: MTT cytotoxicity assay on MCF-7 cells; type: cell-based; conditions: Homo sapiens, MCF7; for viability at 1.25 µM: MCF-7, 1.25 µM; for viability at 1.25 µM / viability at 2.5 µM / viability at 5 µM / viability at 10 µM / viability at 20 µM / viability at 40 µM / viability at 80 µM / viability at 160 µM: Table S2; for viability at 2.5 µM: MCF-7, 2.5 µM; for viability at 5 µM: MCF-7, 5 µM; for viability at 10 µM: MCF-7, 10 µM; for viability at 20 µM: MCF-7, 20 µM; for viability at 40 µM: MCF-7, 40 µM; for viability at 80 µM: MCF-7, 80 µM; for viability at 160 µM: MCF-7, 160 µM; for IC50: MTT, 24 h treatment, mean of three experiments ± SEM, read-out: IC50 (µM) MCF-7
Protocol: as §1

p53 = assay: ELISA of p53 in treated HepG-2 cells; type: cell-based, human; conditions: for upregulation of p53 expression compared to untreated cells: HepG-2, compound at its IC50, 24 h; for Concentration of p53: HepG-2, compound at its IC50, ± S.E.M, control 48.29±3.87
Protocol: (§2) HepG2 cells were cultured in RPMI 10% + 5%FBS penicillin/streptomycin and were incubated at a humidity 5% CO2 and maintained at 37 °C. […] HepG2 cells were cultured as a monolayer in T-25 flasks and were seeded to attain 30% confluency prior to treatment. The main 100 mM stock dissolved in DMSO was diluted with the cell culture medium in order to reach the previously determined IC50 concentration of each of the three preparations. After that, HepG2 cells were collected via trypsinization and centrifuged at 10,000 rpm. The pellet was then rinsed with PBS and lysed in RIPA lysis buffer at 4 °C for 45 min, then centrifuged at 14,000 rpm for 20 min to remove the cellular debris. Lysates were then collected and stored at […] for protein determination. The levels of p53, p21, Fas-L, Bax, Bcl-2, and caspase 3/7 were assessed using the human P53 ELISA kit (Catalog No. ABIN6962151), P21 ELISA kit (Catalog No. ABIN6966175), Human Apoptosis Ligand (FAS-L), Bax ELISA kit, Human Factor-Related. Bcl-2 ELISA kit ELISA kit, and caspase3/7 ELISA kit (Elabscience Biotechnology Co., Wuhan, Hubei, China). The procedure of the used kits was done according to the manufacturer’s instructions. Briefly, equal amounts of cell lysates were loaded and then probed with specific antibodies. The samples were measured at 450 nm in ROBONEK P2000 ELISA reader. The analysis was confirmed with three different sets of extracts. All experiments were done in triplicate (Tables S6–S9).

HepG-2 cells [2] = assay: DNA flow cytometry cell cycle analysis; type: cell-based, human; conditions: HepG-2, compound at its IC50, 24 h
Protocol: The HepG-2 cells were then collected by trypsinization, washed with PBS, and fixed. After that, treated cells were stained using the Cycle Test Plus DNA Reagent Kit (BD Biosciences, San Jose, CA, USA) according to the manufacturer’s instructions. The percentage of cell cycle distribution was calculated using CELLQUEST software 5.1 (Becton Dickinson Immuno-cytometry Systems, San Jose, CA, USA) (Table S4).

Bax = assay: ELISA of Bax in treated HepG-2 cells; type: cell-based, human; conditions: HepG-2, compound at its IC50; ± S.E.M; control 18.93±11.71
Protocol: as §2, with “The analysis was confirmed with three different sets of extracts. All experiments were done in triplicate (Tables S6–S9).” left out

Compound | fold higher cytotoxicity than indirubin (HepG-2 cells [1]) | viability at 1.25 µM (HepG-2 cells [1]) | viability at 2.5 µM (HepG-2 cells [1]) | viability at 5 µM (HepG-2 cells [1]) | viability at 10 µM (HepG-2 cells [1]) | viability at 20 µM (HepG-2 cells [1]) | viability at 40 µM (HepG-2 cells [1]) | viability at 80 µM (HepG-2 cells [1]) | viability at 160 µM (HepG-2 cells [1]) | IC50 (HepG-2 cells [1]) | viability at 1.25 µM (MCF-7 cells) | viability at 2.5 µM (MCF-7 cells) | viability at 5 µM (MCF-7 cells) | viability at 10 µM (MCF-7 cells) | viability at 20 µM (MCF-7 cells) | viability at 40 µM (MCF-7 cells) | viability at 80 µM (MCF-7 cells) | viability at 160 µM (MCF-7 cells) | IC50 (MCF-7 cells) | upregulation of p53 expression compared to untreated cells (p53) | further results
O=C1Nc2ccc(Cl)cc2C1=Nc1ccc2nc[nH]c(=O)c2c1 [Compound 9, 6-(5-Chloro-2-oxo-1,2-dihydro-indol-3-ylideneamino)-3H-quinazolin-4-one] | 2.2–2.7 fold | 61.3 ± 3.6% | 54.4 ± 3.1% | 34.8 ± 0.9% | 28.6 ± 2.1% | 23.1 ± 2.4% | 19.6 ± 2% | 16.3 ± 1.7% | 12.9 ± 1.5% | 2.53 ± 0.11 µM | 90.5 ± 7.8% | 72.8 ± 6.3% | 64.1 ± 4.5% | 49 ± 2% | 34.4 ± 0.2% | 18.2 ± 1% | 14.8 ± 1.3% | 8.7 ± 1.2% | 7.54 ± 0.71 µM | 6.7 fold | Concentration of p53 (p53): 325.11 ± 29.55 pg/mL; Cell cycle distribution (%) G0-G1 (HepG-2 cells [2]): 67.16%; Cell cycle distribution (%) G2-M (HepG-2 cells [2]): 20.75%; Cell cycle distribution (%) S (HepG-2 cells [2]): 32.03%; Cell cycle distribution (%) sub-G0/G1 (HepG-2 cells [2]): 13.82%; Concentration of Bax (Bax): 88.12 ± 5.27 pg/mL
O=C1Nc2ccc(Cl)cc2C1=Nc1ccc(-c2nc3ccccc3c(=O)[nH]2)cc1 [Compound 20, 2-[4-(5-Chloro-2-oxo-1,2-dihydro-indol-3-ylideneamino)-phenyl]-3H-quinazolin-4-one] | 2.2–2.7 fold | 58.2 ± 3.3% | 52.1 ± 2.9% | 36.7 ± 1.2% | 29.4 ± 2.5% | 21.7 ± 2% | 18.4 ± 1.8% | 15.2 ± 1.5% | 11.8 ± 1.3% | 3.08 ± 0.35 µM | 92.4 ± 5.7% | 84.3 ± 4.8% | 76.7 ± 4.2% | 67.9 ± 3.4% | 47.1 ± 3% | 24.6 ± 1.9% | 7.77 ± 0.9% | 4.1 ± 0.1% | 5.28 ± 0.22 µM | 2.65 fold | Concentration of p53 (p53): 127.43 ± 9.43 pg/mL; Cell cycle distribution (%) G0-G1 (HepG-2 cells [2]): 60.3%; Cell cycle distribution (%) G2-M (HepG-2 cells [2]): 2.86%; Cell cycle distribution (%) S (HepG-2 cells [2]): 16.27%; Cell cycle distribution (%) sub-G0/G1 (HepG-2 cells [2]): 10.59%; Concentration of Bax (Bax): 108.32 ± 9.82 pg/mL

Reference: paper PMC11901902, “Design, Synthesis, and Cytotoxicity Evaluation of Novel Indolin-2-One Based Molecules on Hepatocellular Carcinoma HepG2 Cells as Protein Kinase Inhibitors” (Molecules, 2025)
